# Measured values: ChEMBL document CHEMBL4376833, “Influence of Non-natural Cationic Amino Acids on the Biological Activity Profile of Innate Defense Regulator Peptides” (J Med Chem, 2019)
# Active and inactive are the calls of the source. Unless noted, the rule behind the calls is not given here. Non-standard residues stand in square brackets, D forms with d. Residues, ends and D or L forms follow the SMILES beside them. Orn = NCCC[C@H](N)C(=O)O; Dap = NC[C@H](N)C(=O)O
# Columns and labels:
# [1] = Binding affinity to SDS micelle assessed as blue shift with maximum emission at wavelength between 339 to 344 nm at 1 uM in TRIS buffer at pH 7.4 measured after 24 hrs by Trp emission fluorescence spectroscopy
# Staphylococcus aureus [2] = assay: Antibacterial activity against methicillin-resistant Staphylococcus aureus assessed as bacterial growth inhibition in MHB medium measured after overnight incubation by CLSI protocol based broth dilution method; assay type: functional
# [3] = Binding affinity to DPC micelle assessed as blue shift with maximum fluorescence emission at 1 uM in TRIS buffer at pH 7.4 measured after 24 hrs by Trp emission fluorescence spectroscopy
# [4] = Binding affinity to DPC micelle assessed as increase in fluorescence emission intensity at maximum wavelength at 1 uM in TRIS buffer at pH 7.4 measured after 24 hrs by Trp emission fluorescence spectroscopy relative to TRIS buffer
# Staphylococcus aureus [5] = assay: Antibacterial activity against methicillin-resistant Staphylococcus aureus assessed as alteration in bacterial growth incubated for overnight by microtiter plate based spectrophotometric analysis; assay type: functional, organism-based
# Staphylococcus aureus [6] = assay: Antibacterial activity against methicillin-resistant Staphylococcus aureus assessed as alteration in bacterial growth in TSB medium supplemented with 1% glucose up to 64 uM measured after overnight incubation by CLSI protocol based broth dilution method; assay type: functional, organism-based
# Staphylococcus aureus [7] = assay: Antibiofilm activity against methicillin-resistant Staphylococcus aureus assessed as inhibition of biofilm formation by measuring residual biofilm growth incubated for overnight at 10-fold dilution by crystal violet staining based microtiter plate assay relative to control; assay type: functional
# Staphylococcus aureus [8] = assay: Antibacterial activity against methicillin-resistant Staphylococcus aureus assessed as bacterial growth inhibition in TSB medium supplemented with 1% glucose measured after overnight incubation by CLSI protocol based broth dilution method; assay type: functional, organism-based
# [9] = Binding affinity to SDS micelle assessed as increase in fluorescence emission intensity at maximum wavelength at 1 uM in TRIS buffer at pH 7.4 measured after 24 hrs by Trp emission fluorescence spectroscopy relative to TRIS buffer
# PBMC [10] = assay: Immunostimulatory activity in human PBMC assessed as induction of chemokine MCP1 production at 10 to 40 uM incubated for overnight by ELISA; assay type: functional, cell-based
# PBMC [11] = assay: Cytotoxicity against human PBMC assessed as decrease in cell viability at 10 to 40 uM incubated for overnight by LDH assay; assay type: cell-based
# Staphylococcus aureus [12] = assay: Antibiofilm activity against methicillin-resistant Staphylococcus aureus assessed as inhibition of biofilm formation incubated for overnight by crystal violet staining based microtiter plate assay; assay type: functional, organism-based
# Staphylococcus aureus [13] = assay: Antibacterial activity against methicillin-resistant Staphylococcus aureus assessed as alteration in bacterial growth in TSB medium supplemented with 1% glucose at concentration of MIC in MHB medium measured after overnight incubation by CLSI protocol based broth dilution method; assay type: functional, organism-based
# PBMC [14] = assay: Antiinflammatory activity against LPS-stimulated human PBMC assessed as suppression of IL1 production at 10 to 40 uM incubated for overnight in presence of Pseudomonas aeruginosa PAO1 LPS by ELISA; assay type: functional, cell-based
# [15] = Stability of compound assessed as bovine trypsin-mediated compound hydrolysis at 10 uM incubated for 30 mins by RP-HPLC analysis; assay type: ADME, Bos taurus; settings: cattle, read-out: Drug degradation
# [16] = Binding affinity to DPC micelle assessed as blue shift with maximum emission at wavelength of 340 nm at 1 uM in TRIS buffer at pH 7.4 measured after 24 hrs by Trp emission fluorescence spectroscopy
# PBMC [17] = assay: Cytotoxicity against human PBMC assessed as decrease in cell viability at 40 uM incubated for overnight by LDH assay relative to control; assay type: cell-based
# PBMC [18] = assay: Proinflammatory activity in human PBMC assessed as increase in LPS-stimulated IL1 production at 40 uM incubated for overnight in presence of Pseudomonas aeruginosa PAO1 LPS by ELISA relative to control; assay type: cell-based
# [19] = Binding affinity to DPC micelle assessed as blue shift with maximum emission at wavelength of 352 nm at 1 uM in TRIS buffer at pH 7.4 measured after 24 hrs by Trp emission fluorescence spectroscopy
# PBMC [20] = assay: Proinflammatory activity in human PBMC assessed as increase in LPS-stimulated IL1 production at 40 uM incubated for overnight in presence nof Pseudomonas aeruginosa PAO1 LPS by ELISA; assay type: cell-based
Molecule,Activity [1],MIC (Staphylococcus aureus [2]) [µM],Activity [3],fold change (FC) [4],Activity (Staphylococcus aureus [5]),Activity (Staphylococcus aureus [6]),residual biofilm growth (% of control) (Staphylococcus aureus [7]) [%],inhibition (Staphylococcus aureus [8]),Activity [9],Activity (PBMC [10]),Activity (PBMC [11]),IC50 (Staphylococcus aureus [12]) [µM],inhibition (Staphylococcus aureus [12]),Activity (Staphylococcus aureus [13]),Activity (PBMC [14]),"metabolised at 0.5 h, 10 µM [15] [%]",Activity (PBMC [20]),further results
H-VRLIVRVRIWRR-NH2,Active,2,Active,2 to 6,Active,Active,9.2,inactive,inactive,Active,Non-Toxic,4 to 6,Dose-dependent effect,Active,Active,90,–,–
H-VRLIVAVRIWRR-NH2,Active,4,Active,–,Active,Active,8.5,inactive,–,inactive,–,4 to 6,Dose-dependent effect,Active,–,60,–,Activity [16]: Active
H-VKLIVKVKIWKK-NH2,Active,4,Active,2 to 6,–,Active,–,inactive,–,Active,–,9.9,–,Active,–,18,–,fold change (FC) [9]: 2.5; Activity (PBMC [17]): 40%; fold change (FC) (PBMC [18]): 4 to 8
CC[C@H](C)[C@H](NC(=O)[C@H](CCCN)NC(=O)[C@@H](NC(=O)[C@H](CCCN)NC(=O)[C@@H](NC(=O)[C@@H](NC(=O)[C@H](CC(C)C)NC(=O)[C@H](CCCN)NC(=O)[C@@H](N)C(C)C)[C@@H](C)CC)C(C)C)C(C)C)C(=O)N[C@@H](Cc1c[nH]c2ccccc12)C(=O)N[C@@H](CCCN)C(=O)N[C@@H](CCCN)C(N)=O (H-V[Orn]LIV[Orn]V[Orn]IW[Orn][Orn]-NH2),Active,32,Active,2 to 6,–,Active,–,inactive,inactive,Active,Non-Toxic,32,–,Active,–,60,Toxic,Activity [19]: Active
CC[C@H](C)[C@H](NC(=O)[C@H](CCCN)NC(=O)[C@@H](NC(=O)[C@H](C)NC(=O)[C@@H](NC(=O)[C@@H](NC(=O)[C@H](CC(C)C)NC(=O)[C@H](CCCN)NC(=O)[C@@H](N)C(C)C)[C@@H](C)CC)C(C)C)C(C)C)C(=O)N[C@@H](Cc1c[nH]c2ccccc12)C(=O)N[C@@H](CCCN)C(=O)N[C@@H](CCCN)C(N)=O (H-V[Orn]LIVAV[Orn]IW[Orn][Orn]-NH2),Active,8,Active,2 to 6,–,Active,–,inactive,inactive,Active,Non-Toxic,32,–,Active,–,–,Toxic,–
H-VRLIVKVRIWRR-NH2,Active,4,Active,2 to 6,Active,Active,6.1,inactive,–,inactive,Non-Toxic,4 to 6,Dose-dependent effect,Active,Active,60,–,fold change (FC) [9]: 2.5
H-VKLIVAVKIWKK-NH2,Active,4,Active,2 to 6,–,Active,–,inactive,inactive,Active,Non-Toxic,12.7,–,Active,–,5,Toxic,–
CC[C@H](C)[C@H](NC(=O)[C@H](CN)NC(=O)[C@@H](NC(=O)[C@H](C)NC(=O)[C@@H](NC(=O)[C@@H](NC(=O)[C@H](CC(C)C)NC(=O)[C@H](CN)NC(=O)[C@@H](N)C(C)C)[C@@H](C)CC)C(C)C)C(C)C)C(=O)N[C@@H](Cc1c[nH]c2ccccc12)C(=O)N[C@@H](CN)C(=O)N[C@@H](CN)C(N)=O (H-V[Dap]LIVAV[Dap]IW[Dap][Dap]-NH2),Active,4,Active,2 to 6,–,Active,–,inactive,inactive,Active,Non-Toxic,12.8,–,Active,–,30,–,fold change (FC) (PBMC [18]): 4 to 8
CC[C@H](C)[C@H](NC(=O)[C@H](CN)NC(=O)[C@@H](NC(=O)[C@H](CN)NC(=O)[C@@H](NC(=O)[C@@H](NC(=O)[C@H](CC(C)C)NC(=O)[C@H](CN)NC(=O)[C@@H](N)C(C)C)[C@@H](C)CC)C(C)C)C(C)C)C(=O)N[C@@H](Cc1c[nH]c2ccccc12)C(=O)N[C@@H](CN)C(=O)N[C@@H](CN)C(N)=O (H-V[Dap]LIV[Dap]V[Dap]IW[Dap][Dap]-NH2),Active,8,Active,2 to 6,–,Active,–,inactive,inactive,inactive,Non-Toxic,19.6,–,Active,inactive,14,–,–
